The text below walks through data of ChEMBL document CHEMBL5053549, “Discovery of Potent and Novel Dual PARP/BRD4 Inhibitors for Efficient Treatment of Pancreatic Cancer” (J Med Chem, 2021).

Activity calls are given as the source filed them. The calls are words filed in the database; no cut-off is given here.

Experiment [1] concerns Mus musculus. Nature of the experiment: In vivo inhibition of PARP1 expression in human […] cells xenografted in BALB/c mouse at 45 mg/kg, ip administered for 28 consecutive days by Western blot analysis. Type of experiment: functional, organism-based. The conditions noted are these: time 28.0 day.
The subject of experiment [2] is SW1990. The experiment can be described thus: Induction of apoptosis in human SW1990 cells assessed as necrotic cells at 1 uM after 4 days by Annexin V-FITC and propidium iodide staining based flow cytometry (reference value: 1.89%). Type of experiment: functional. The conditions noted are these: time 4 day.
Experiment [3] concerns SW1990. Nature of the experiment: Inhibition of homologous recombinant repair in human SW1990 cells assessed as reduction in Rad51 expression at 1 to 2 uM after 4 days by Q-PCR analysis. It counts as functional, cell-based. The conditions noted are these: dose 1-2 µM, time 4.0 day.
Experiment [4] has as its system Mus musculus. Nature of the experiment: Inhibition of homologous recombinant repair in human SW1990 cells xenografted in BALB/c mouse assessed as reduction in olaparib-induced FOXM1 expression at 15 mg/kg, ip after 4 days by immunohistochemical analysis. The conditions noted are these: time 4.0 day. It counts as functional, organism-based.
Experiment [5] relates to Mus musculus. Nature of the experiment: Effect on cell cycle progression in human SW1990 cells xenografted in BALB/c mouse assessed as reduction in PLK1 expression at 45 mg/kg, ip after 4 days by Q-PCR analysis. The conditions noted are these: time 4.0 day. Type of experiment: functional, organism-based.
Experiment [6] has as its system SW1990. Nature of the experiment: Inhibition of homologous recombinant repair in human SW1990 cells assessed as reduction in c-Myc expression at 1 to 2 uM after 4 days by Western blot analysis. It counts as functional, cell-based. The conditions noted are these: dose 1-2 µM, time 4.0 day.
Experiment [7] relates to SW1990. Nature of the experiment: Induction of autophagy in human SW1990 cells xenografted in BALB/c mouse assessed as increase in ATG5 expression at 45 mg/kg, ip after 4 days by Western blot analysis. Type of experiment: functional, organism-based. Particulars: time 4.0 day.
The subject of experiment [8] is SW1990. Nature of the experiment: Inhibition of homologous recombinant repair in human SW1990 cells assessed as reduction in FOXM1 expression at 1 to 2 uM after 4 days by Q-PCR analysis. Type of experiment: functional, cell-based. The conditions noted are these: dose 1-2 µM, time 4.0 day.
Experiment [9] deals with Poly [ADP-ribose] polymerase 1 (Homo sapiens, UniProt P09874). Nature of the experiment: Inhibition of PARP1 expression in human SW1990 cells at 1 uM after 4 days by Western blot analysis. Type of experiment: cell-based. The conditions noted are these: time 4.0 day.
Poly [ADP-ribose] polymerase 1, sequence (P09874 whole entry): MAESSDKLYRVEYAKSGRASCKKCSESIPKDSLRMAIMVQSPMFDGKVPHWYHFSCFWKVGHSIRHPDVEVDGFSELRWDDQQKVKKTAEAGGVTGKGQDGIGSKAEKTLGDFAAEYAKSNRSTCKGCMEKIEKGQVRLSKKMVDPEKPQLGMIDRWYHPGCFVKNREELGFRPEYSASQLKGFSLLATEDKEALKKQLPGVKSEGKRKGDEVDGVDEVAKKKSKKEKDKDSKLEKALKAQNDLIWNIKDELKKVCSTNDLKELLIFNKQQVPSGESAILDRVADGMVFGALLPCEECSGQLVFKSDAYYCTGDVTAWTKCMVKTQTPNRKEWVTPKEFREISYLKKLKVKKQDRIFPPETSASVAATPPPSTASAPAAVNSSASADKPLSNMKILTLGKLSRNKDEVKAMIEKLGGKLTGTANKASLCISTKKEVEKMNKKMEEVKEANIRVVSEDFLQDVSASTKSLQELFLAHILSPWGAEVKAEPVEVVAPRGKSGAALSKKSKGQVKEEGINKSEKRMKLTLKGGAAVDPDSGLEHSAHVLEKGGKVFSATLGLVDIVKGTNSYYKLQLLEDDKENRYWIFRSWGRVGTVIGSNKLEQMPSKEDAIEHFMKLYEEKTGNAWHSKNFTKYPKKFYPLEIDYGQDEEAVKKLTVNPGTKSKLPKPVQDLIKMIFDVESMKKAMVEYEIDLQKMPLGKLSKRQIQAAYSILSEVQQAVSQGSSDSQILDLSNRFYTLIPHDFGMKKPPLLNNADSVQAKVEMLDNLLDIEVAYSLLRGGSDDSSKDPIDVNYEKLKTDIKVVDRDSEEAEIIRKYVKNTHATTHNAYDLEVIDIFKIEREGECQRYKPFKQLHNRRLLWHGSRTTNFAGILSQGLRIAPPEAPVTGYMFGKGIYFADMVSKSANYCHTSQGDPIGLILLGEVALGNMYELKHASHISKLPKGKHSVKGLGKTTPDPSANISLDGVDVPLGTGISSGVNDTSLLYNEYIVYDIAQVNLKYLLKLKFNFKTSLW
The subject of experiment [10] is Mus musculus. The experiment can be described thus: In vivo inhibition of PARP1 expression in human […] cells xenografted in BALB/c mouse assessed as reversal of Olaparib-induced PARP1 accumulation at 15 mg/kg, ip administered for 28 consecutive days in presence of 45 mg/kg Olaparib by Western blot analysis. Type of experiment: functional, organism-based. The conditions noted are these: time 28.0 day.

The test system of experiment [11] is SW1990. Nature of the experiment: Induction of DNA damage in human SW1990 cells assessed as tail DNA at 1 uM incubated for 4 days in presence of 3 uM Olaparib by comet assay. Particulars: time 4.0 day. It counts as functional, cell-based.
In experiment [12] the test system is SW1990. The experiment can be described thus: Induction of cell cycle arrest in human SW1990 cells assessed as accumulation of cells at S phase at 1 uM incubated for 4 days in presence of 3 uM Olaparib by propidium iodide staining based flow cytometry (reference value: 29.32%). The conditions noted are these: time 4 day. It counts as functional.
The subject of experiment [13] is SW1990. The experiment can be described thus: Induction of cell cycle arrest in human SW1990 cells assessed as accumulation of cells at G0/G1 phase at 1 uM incubated for 4 days in presence of 3 uM Olaparib by propidium iodide staining based flow cytometry (reference value: 64.79%). Type of experiment: functional. Particulars: time 4 day.

As for `CC[C@@H]1C(=O)N(C)c2cnc(N(C)c3ccc(-c4nc5c(C(N)=O)cccc5[nH]4)cc3OC)nc2N1C1CCCC1`, the result with Mus musculus [1], with Mus musculus [5] and with SW1990 [7] was Active. Also, in the experiment on SW1990 [2], the Activity was determined as 3.41%. Besides, the inhibition result (with SW1990 [3]; with Mus musculus [4]; in the experiment on SW1990 [6]; in the experiment on SW1990 [8]; in experiment [9]) was “Active” in each case.
With `Cc1sc2c(c1C)C(c1ccc(Cl)cc1)=N[C@@H](CC(=O)OC(C)(C)C)c1nnc(C)n1-2`, the outcome in the experiment on Mus musculus [10] and in the experiment on SW1990 [11] was Active. In addition, the Activity in the experiment on SW1990 [12] amounted to 19.33%; in the experiment with SW1990 [13], 71.53%.
